Measured values published in PubChem BioAssay (NCI).
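Assay format: 96-well plates, 48-hour exposure. At the TGI there is no net growth.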

Tests used:
Assay in all cases: NCI tumour cell line growth inhibition, 48 h
PC-3 prostate = tested on: PC-3 prostate
SK-MEL-28 melanoma = tested on: SK-MEL-28 melanoma
HCT-116 colon = tested on: HCT-116 colon
BT-549 breast = tested on: BT-549 breast
HCT-15 colon = tested on: HCT-15 colon
SK-MEL-2 melanoma = tested on: SK-MEL-2 melanoma
NCI-H460 lung = tested on: NCI-H460 lung
KM12 colon = tested on: KM12 colon
HCC-2998 colon = tested on: HCC-2998 colon
MALME-3M melanoma = tested on: MALME-3M melanoma

| Structure (SMILES) | TGI (PC-3 prostate) [µM] | TGI (SK-MEL-28 melanoma) [µM] | TGI (HCT-116 colon) [µM] | TGI (BT-549 breast) [µM] | TGI (HCT-15 colon) [µM] | TGI (SK-MEL-2 melanoma) [µM] | TGI (NCI-H460 lung) [µM] | TGI (KM12 colon) [µM] | TGI (HCC-2998 colon) [µM] | TGI (MALME-3M melanoma) [µM] |
| --- | --- | --- | --- | --- | --- | --- | --- | --- | --- | --- |
| C/C(=N\Nc1ccccc1)C(CN(C)C)C(c1ccccc1)c1c(O)c2ccccc2oc1=O (stereo not drawn) | > 100 | > 100 | > 100 | > 100 | > 100 | > 100 | > 100 | > 100 | > 100 | > 100 |
| CCCCCCCCCCCCCCCCOCC(Cl)COP(=O)(O)OP(=O)(O)OCC1OC(n2cnc3c(N)ncnc32)C(O)C1O (stereo not drawn) | 96.8 | > 100 | > 100 | > 100 | > 100 | > 100 | > 100 | > 100 | > 100 | > 100 |
| O=c1oc2ccc(Cl)cc2cc1-c1cn2ccsc2n1 | > 100 | > 100 | > 100 | 70.3 | > 100 | > 100 | > 100 | > 100 | > 100 | > 100 |
| CC1=C2NCN(C)N=C2C(C#N)(C#N)C1(C#N)C#N | 72.8 | 49.9 | 57.4 | 44.5 | 40.5 | > 100 |  | > 100 | 44.4 | 44.2 |
| C=C1CC(Cn2cc(Br)c(=O)[nH]c2=O)(c2ccc(-c3ccccc3)cc2)OC1=O (stereo not drawn) | 3.31 | 0.671 | 1.32 | 3.31 | 3.8 | 3.26 | 19.7 | 3.68 | 3.21 | 3.06 |
| Cn1c(=O)sc2cc(C(=S)N3CCOCC3)ccc21 | > 100 | > 100 | > 100 | > 100 | > 100 | > 100 | > 100 | > 100 | > 100 | > 100 |
| CCOC(=O)/C(C#N)=C/N(CC)/N=C/c1ccccc1 | > 100 | > 100 | > 100 | > 100 | > 100 | > 100 | > 100 | > 100 | > 100 | > 100 |
| CC/C(Cl)=N\OC(=O)Nc1ccc(F)cc1F | 33.3 | 35.9 | 19.1 | 6.93 | 5.24 | 33.1 | 85.8 | 41.3 | 36.7 | 12 |
| O=C1OI(C#Cc2ccccc2)c2ccccc21 | 18.3 | 21.2 | 5.8 | 8.22 | 11.2 | 44.1 | 13.4 | 9.31 | 21.4 | 5.64 |
| O=S1(=O)CCN(c2ccccc2CC(c2c[nH]c3ccccc23)c2c[nH]c3ccccc23)CC1 | 13.2 | 28.8 | 16.5 | 37.3 | 36.3 | 21.1 | 13 | 13.5 | 8.09 | 43.7 |
| CC(C)C1CC(CO)(CNc2cc(Cl)nc(N)n2)C1 (stereo not drawn) | > 100 | > 100 | > 100 | > 100 | > 100 | > 100 | > 100 | > 100 | > 100 | > 100 |
| COC(=O)C(C(=O)C(=O)NC1Nc2ccc(C)cc2S1)c1nc2ccc(Cl)cc2[nH]c1=O (stereo not drawn) | > 100 | > 100 | > 100 | > 100 | > 100 | > 100 | > 100 | > 100 | > 100 | > 100 |
| O=S(=O)(O)C1CCC(O)C2[N-]CCCC21.O=S(=O)(O)C1CCC(O)C2[N-]CCCC21.[Zn+2] (stereo not drawn) | > 100 | > 100 | > 100 | > 100 | > 100 | > 100 | > 100 | > 100 | > 100 | > 100 |
| CC(C)(C)c1c(C(C)(C)C)c(=O)c1=O | > 100 | > 100 | > 100 | > 100 | > 100 | > 100 | > 100 | > 100 | > 100 | > 100 |
| CC(C)(C)c1ccc(-c2nnc(-c3cc(C#N)cc(-c4nnc(-c5ccc(C(C)(C)C)cc5)o4)c3)o2)cc1 | > 100 | > 100 | > 100 | > 100 | > 100 | > 100 | > 100 | > 100 | > 100 | > 100 |
| O=C1CSC2(CC(/C=C/c3ccccc3Br)=NN2c2cccc(S(=O)(=O)O)c2)N1c1nc2ccccc2s1 (stereo not drawn) | > 100 | > 100 | > 100 | > 100 | > 100 | > 100 | > 100 | > 100 | > 100 | > 100 |
| Cc1ccc(S(=O)(=O)N/N=C2\C3CC4CC(C3)C2C4)cc1 (stereo not drawn) | > 100 | > 100 |  | > 100 | > 100 | > 100 | > 100 | > 100 | > 100 | > 100 |
